Assay results reported in ChEMBL document CHEMBL5052837, “Ghrelin o-acyltransferase inhibitors” (2019).
The source made the active and inactive calls. The calls are words filed in the database; no cut-off is given here.

Columns and labels:
Rattus norvegicus [1] = assay: In vivo inhibition of GOAT in fasting rat assessed as reduction in acyl ghrelin level at 10 mg/kg; format: functional, organism-based
Mus musculus [2] = assay: In vivo inhibition of GOAT in fasting mouse assessed as reduction in acyl ghrelin level at 1 to 10 mg/kg, po administered twice a day for 2 days; format: functional, organism-based; conditions: dose 1-10 mg/kg, time 2.0 day
Rattus norvegicus [3] = assay: In vivo inhibition of GOAT in fasting rat assessed as increase in des-acyl ghrelin level at 10 mg/kg; format: functional, organism-based
Mus musculus [4] = assay: In vivo inhibition of GOAT in high fat, high carb (HFHC) diet-induced obesity model of C57BL/6 mouse assessed as increase in des-acyl ghrelin level at 10 mg/kg; format: functional, organism-based
[5] = In vivo inhibition of GOAT in high fat, high carb (HFHC) diet-induced obesity model of C57BL/6 mouse assessed as reduction in acyl ghrelin level at 3 mg/kg; format: functional; design: scale not given: the % may be the effect or the level left
Mus musculus [6] = assay: In vivo inhibition of GOAT in high fat, high carb (HFHC) diet-induced obesity model of C57BL/6 mouse assessed as increase in des-acyl ghrelin level at 3 mg/kg; format: functional, organism-based

SMILES: O=C(O)Cc1csc2cc(O[C@H]3CCc4ncccc43)cc(Cl)c12
- Activity (Rattus norvegicus [1]): Active
- Activity (Mus musculus [2]): Active
- Activity (Rattus norvegicus [3]): Active
- Activity (Mus musculus [4]): Active

SMILES: Cc1c(C(=O)NN2CCCCC2)nn(-c2ccc(Cl)cc2Cl)c1-c1ccc(Cl)cc1 [RIMONABANT]
- Activity [5]: 61%
- Activity (Mus musculus [6]): Active
